Legend:
[1] = tested on: Casp6 (VEID-aminoluciferin cleavage); set-up: method as in PMID 25616965; conditions: read-out: inhibition of cleavage of VEID-aminoluciferin; cited from earlier work
Caspase-5 = tested on: Caspase-5; set-up: method as in PMID 25616965; conditions: cited from earlier work
[2] = tested on: Casp6 (mutant huntingtin cleavage); set-up: method as in PMID 25616965; conditions: read-out: IC50 against mutant huntingtin cleavage (FRET); cited from earlier work
recombinant Casp6 = tested on: recombinant Casp6; set-up: method as in PMID 9092497; conditions: read-out: Michaelis-Menten constant (Km) for recombinant Casp6; cited from earlier work
Caspase-3 = tested on: Caspase-3; set-up: method as in PMID 9092497; conditions: read-out: Michaelis-Menten constant (Km) for Caspase-3; cited from earlier work
mammals = conditions: fmk moiety metabolized into fluorocitrate; cited from earlier work
[3] = tested on: APPWT-transfected primary human CNS neurons; experiment: Neuritic beading/degeneration in APPWT-transfected primary human neurons; assay type: cell-based; conditions: NWL 100 μM, Z-VEID-fmk 5 μM
Experimental: Immunofluorescence on human neuron cultures: Primary human neurons were pre-treated 2 h and serum-deprived in the presence of 100 μM NWL-117, 100 μM NWL-154, or 5 μM Z-VEID-fmk (Biomol, Plymouth meeting, PA, USA) for 24 h. Following treatment, human neurons were washed once with warm PBS, fixed for 20 min at room temperature with 4% paraformaldehyde (Sigma, Oakville, ON, CA)/4% sucrose (BioRad, Mississauga, ON, CA) for TubΔCasp6 or 2% formaldehyde (Thermo Fisher Scientific, Waltham, MA, USA)/0.2% glutaraldehyde (Sigma, Oakville, ON, CA) for pBudEGFP or pBudEGFP/APP^WT-transfected neurons, incubated in permeabilization buffer (0.1% Triton X-100, 0.1 sodium citrate) for 1 min on ice, washed with PBS, blocked for 20 min at room temperature with 10% goat serum (Sigma, Oakville, ON, CA), and incubated with primary antibodies diluted in 10% goat serum in PBS overnight at 4 °C in a humid chamber. The glass coverslips were washed with PBS, and incubated with goat anti-rabbit secondary antibody coupled to Alexa 488 (Molecular Probes, Eugene, OR, USA) or Cy3 (GE Healthcare Life Sciences, Baie D’Urfe, QC, CA) and Hoechst 33342 (ImmunoChemistry, Bloomington, MN, USA) at 1 μg/mL for 2 h at room temperature. The coverslips were washed with PBS and rinsed in Milli-Q water before mounting in fluoromount (Dako, Burlington, ON, CA). Images were acquired by fluorescence microscopy and quantified using the ImageJ software (NIH, Bethesda, MD, USA) for TubΔCasp6 and manually counted for transfected EGFP(+)-neurons. Time lapse-imaging by live fluorescence microscopy: Primary human neurons were transfected with gold beads coated with pBudEGFP or pBudEGFP/APP^WT using a Helios Gene gun (BioRad, Mississauga, ON, CA). Briefly, cells were pre-treated with 100 μM NWL inhibitors or 5 μM Z-VEID-fmk for 2 h. The media was removed and the neurons were shot at 100 psi. The media was quickly replaced with the inhibitors present. The plasmid was expressed for 16 h before setting up the fluorescence microscope (Nikon Eclipse Ti) to acquire 20 images per condition every hour for 72 h at 37 °C with 5% CO2. The images were analyzed by counting the total number of neurons (50–100 neurons per condition per independent experiment), and the number of beaded, swollen soma, and healthy neurons. In addition, the time at which cells beaded was noted. Phase contrast microscopy: HCT116 cells, plated at a density of 1×10^5 cells/well and human neurons, plated at a density of 6×10^6 cells/well on poly-L-lysine were treated with PBS, 100 μM NWL-117, 100 μM NWL-154, or 2 μM staurosporine (Biomol, Plymouth meeting, PA, USA) for 24 h. Images were acquired with the Nikon Eclipse Ti microscope and the NIS-Elements (Version 3.10) software.

ED11: 24 amino acid peptide (GRKKRRQRRRPPQSSEIVLDGTDN) containing HIV TAT-peptide and huntingtin sequences; Casp6 inhibitor
IC50 [1]: > 10 µM | Caspase-5 activity on the FRET assay (Caspase-5): significant enhancement | IC50 [2]: 0.0121 µM

VEID: Val-Glu-Ile-Asp peptide substrate sequence preferred by Casp6 (printed: Val-Glu-Ile-Asp)
Km (recombinant Casp6): 30 µM | Km (Caspase-3): 250 µM

benzyloxycarbonyl-Val-Glu-Ile-Asp-fmk [Z-VEID-fmk, reference compound]
toxicity to mammals (mammals): toxic to mammals | neuritic beading ([3]; APPWT/EGFP co-expression, 48 h): prevented neuritic beading | percentage of beaded neurons, fold of EGFP-alone ([3]; live imaging 72 h, APPWT vehicle 1.52, EGFP-alone 1.00, mean ± SEM): 0.97 fold

From paper PMC5329948, “Caspase vinyl sulfone small molecule inhibitors prevent axonal degeneration in human neurons and reverse cognitive impairment in Caspase-6-overexpressing mice” (Molecular Neurodegeneration, 2017)
